We go through 25 compounds from patent publication US20260184687A1, “DIHYDROINDENE DERIVATIVES AS MALT1 INHIBITORS” (C4X Discovery Limited, priority 2022, published 2026).

SMILES strings stand for the structures. Structures can show the parent of a compound that is named as a salt.

Broadly, the IC50 is the concentration that gives 50% inhibition.

Assay [1] concerns IL-2 release from stimulated Jurkat cells. Nature of the assay: Human IL-2 Release Phenotypic Assay (Assay 3). In kind it is cell-based. Particulars: Jurkat cells (clone E6-1), 200 ng/mL PMA + 300 ng/mL ionomycin, IL-2 by ELISA. In short, it runs like this:
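IC50 values were fitted by 4-parameter non-linear regression to IL-2 release from Jurkat E6-1 cells. Those cells were stimulated for 48 h with PMA (200 ng/mL) plus ionomycin (300 ng/mL) after a 30-min compound pre-incubation at half-log doses in 0.5% DMSO. Cells had been plated at 50 000/well overnight at 37° C.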
On the technique in general: ELISA stands for enzyme-linked immunosorbent assay.

Assay [2] deals with MALT1-GS-Ub (6-His-hMALT-1 residues 339-715 fused to ubiquitin) (Homo sapiens, UniProt Q9UDY8). Nature of the assay: biochemical.
Sequence of MALT1-GS-Ub (6-His-hMALT-1 residues 339-715 fused to ubiquitin) (Q9UDY8 with tags, fused parts or gaps limits assumed): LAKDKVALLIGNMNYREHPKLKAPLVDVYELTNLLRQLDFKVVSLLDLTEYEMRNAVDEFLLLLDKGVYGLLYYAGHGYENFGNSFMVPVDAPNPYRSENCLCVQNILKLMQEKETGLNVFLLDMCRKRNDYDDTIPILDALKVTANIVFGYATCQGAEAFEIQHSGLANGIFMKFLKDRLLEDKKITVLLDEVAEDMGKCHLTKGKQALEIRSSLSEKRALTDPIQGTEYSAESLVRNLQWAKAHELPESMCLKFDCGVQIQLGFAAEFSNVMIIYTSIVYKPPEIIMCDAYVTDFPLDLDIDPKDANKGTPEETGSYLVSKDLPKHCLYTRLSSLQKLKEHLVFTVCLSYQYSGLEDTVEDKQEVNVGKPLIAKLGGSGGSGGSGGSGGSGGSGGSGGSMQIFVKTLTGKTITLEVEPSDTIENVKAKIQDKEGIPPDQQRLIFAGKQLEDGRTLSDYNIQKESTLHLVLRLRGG
Protocol: MALT1 protease activity was assessed in vitro by measuring the cleavage of a fluorogenic tetrapeptide substrate.
A protein (MALT1-GS-Ub) comprising 6-His-hMALT-1 (residues 339-715), fused to ubiquitin with an 8×GGS linker, was expressed in E. coli, and purified using chitin resin to remove contaminants followed by affinity chromatography purification and size-exclusion chromatography, according to standard protocols.
Briefly, MALT1-GS-Ub (300-600 nM) was incubated with substrate (Ac-LVSR-AMC, 100 μM) in reaction buffer comprising 50 mM HEPES (pH7.0), 25 mM KCl, 0.1% (v/v) CHAPS and 1 mM TCEP.
Test compounds dissolved in DMSO were dispensed into assay plates (384-well, black, shallow ProxiPlates). 7 μl enzyme solution was added and incubated at room temperature for 30 minutes to allow compound binding to occur. 2 μl substrate solution was then added and the fluorescence (excitation 360 nm, emission 460 nm) read every 15 minutes using a suitable plate reader. Final assay DMSO concentration was 1%. […] IC50 values were calculated using GraphPad Prism using a 4-parameter non-linear regression curve fit.
The target in a further assay is T1, FL hMALT1 enzyme (Homo sapiens, UniProt Q9UDY8).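 Note: Cell-free protease assay: enzyme preincubated with compound 30 min at room temperature, then cleavage of fluorogenic Ac-LVSR-AMC substrate (100 µM) tracked by fluorescence (ex 360/em 460 nm).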
T1 sequence (Q9UDY8 1-824): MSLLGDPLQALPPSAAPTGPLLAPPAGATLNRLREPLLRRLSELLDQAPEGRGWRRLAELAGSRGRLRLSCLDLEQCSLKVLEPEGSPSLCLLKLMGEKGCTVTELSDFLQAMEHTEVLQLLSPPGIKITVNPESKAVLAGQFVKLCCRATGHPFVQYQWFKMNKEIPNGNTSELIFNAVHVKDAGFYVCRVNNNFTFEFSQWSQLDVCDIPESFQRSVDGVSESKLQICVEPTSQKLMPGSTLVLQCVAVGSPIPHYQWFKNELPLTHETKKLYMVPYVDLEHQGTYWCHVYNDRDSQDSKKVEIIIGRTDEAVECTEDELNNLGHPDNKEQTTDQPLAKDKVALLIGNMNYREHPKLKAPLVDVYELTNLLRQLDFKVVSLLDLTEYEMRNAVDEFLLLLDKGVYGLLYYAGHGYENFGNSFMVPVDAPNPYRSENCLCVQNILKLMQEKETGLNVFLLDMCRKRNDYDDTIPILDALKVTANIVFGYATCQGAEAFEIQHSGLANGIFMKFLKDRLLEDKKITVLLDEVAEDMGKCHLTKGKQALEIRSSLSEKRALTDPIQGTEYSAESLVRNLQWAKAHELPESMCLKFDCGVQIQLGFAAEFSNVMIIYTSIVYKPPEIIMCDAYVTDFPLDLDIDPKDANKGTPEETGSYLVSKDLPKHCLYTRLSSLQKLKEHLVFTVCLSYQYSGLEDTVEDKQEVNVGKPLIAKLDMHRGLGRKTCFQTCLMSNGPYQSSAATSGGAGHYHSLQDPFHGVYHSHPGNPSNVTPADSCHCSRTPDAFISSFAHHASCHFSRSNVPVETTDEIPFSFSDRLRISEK
The experiment in a line: biochemical.

On to `CC(=O)N1CC(C(=O)N(C)[C@@H](c2ccc(NC3Cc4ccccc4C3(C)C)cc2)C(F)(F)F)C1` (single isomer, unassigned) [Example 6], for which the IC50 was determined as 320 nM in assay [1] (48 hours), 150 nM in assay [2] and 16 nM against FL hMALT1 enzyme.
The matching figures for `CN(C(=O)C1CN(S(C)(=O)=O)C1)[C@@H](c1ccc(NC2Cc3ccccc3C2(C)C)cc1)C(F)(F)F` (single isomer, unassigned) [Example 69]: 920 nM, 280 nM and 79 nM.
Taken in the same sequence, the figures for `CC(=O)N1CC(F)(C(=O)N(C)[C@@H](c2ccc(NC3Cc4ccccc4C3(C)C)cc2)C(F)(F)F)C1` (single isomer, unassigned) [Example 44] were 770 nM, 180 nM and 21 nM.
For the compound `CN1CC(C(=O)N(C)C(c2ccc(NC3Cc4ccccc4C3(C)C)cn2)C(F)(F)F)C1` (single isomer, unassigned) [Example 92, N-(1-(5-((1,1-Dimethyl-2,3-dihydro-1H-inden-2-yl)amino)pyridin-2-yl)-2,2,2-trifluoroethyl)-N,1-dimethylazetidine-3-carboxamide], the concentration for half-maximal inhibition (IC50) in assay [1] (Homo sapiens, Jurkat, 48 h) amounted to 870 nM; in assay [2] it was 500 nM; against FL hMALT1 enzyme, 280 nM.
With `CC1c2ccccc2CC1Nc1ccc(C(N(C)C(=O)C2CCS(=O)(=O)CC2)C(F)(F)F)cc1` (mixture of isomers) [Example 8, N-Methyl-N—((S)-2,2,2-trifluoro-1-(4-(((1,2-cis)-1-methyl-2,3-dihydro-1H-inden-2-yl)amino)phenyl)ethyl)tetrahydro-2H-thiopyran-4-carboxamide 1,1-dioxide], the IC50 amounted to 150 nM in assay [1] (Homo sapiens, Jurkat, 48 h); 200 nM in assay [2]; 39 nM at FL hMALT1 enzyme.
As for `CC(=O)N1CC(OC(=O)N(C)[C@@H](c2ccc(NC3Cc4ccccc4C3(C)C)cc2)C(F)(F)F)C1` (single isomer, unassigned) [Example 58], the IC50 is 1020 nM in assay [1] (48 hours), 190 nM in assay [2] and 38 nM against FL hMALT1 enzyme.
Turning to `CN(C(=O)c1cc[nH]c(=O)c1)C(c1ccc(NC2Cc3ccccc3C2(C)C)cn1)C(F)(F)F` (single isomer, unassigned) [Example 96, N-(1-(5-((1,1-Dimethyl-2,3-dihydro-1H-inden-2-yl)amino)pyridin-2-yl)-2,2,2-trifluoroethyl)-N-methyl-2-oxo-1,2-dihydropyridine-4-carboxamide], the IC50 in assay [1] (Homo sapiens, Jurkat, 48 h) amounted to 1560 nM; in assay [2], 140 nM; at FL hMALT1 enzyme, 130 nM.
On to `CN(C(=O)C1CCS(=O)(=O)CC1)[C@@H](c1ccc(NC2Cc3ccc(Cl)cc3C2(C)C)cc1)C(F)(F)F` (single isomer, unassigned) [Example 151], for which the IC50 in assay [1] (48 hours) came out at 97 nM; in assay [2], 120 nM; at FL hMALT1 enzyme, 4 nM.
The matching figures for `CN(C(=O)C1CNC1)C(c1ccc(NC2Cc3ccccc3C2(C)C)nc1)C(F)(F)F` (single isomer, unassigned) [Example 88, N-(1-(6-((1,1-Dimethyl-2,3-dihydro-1H-inden-2-yl)amino)pyridin-3-yl)-2,2,2-trifluoroethyl)-N-methylazetidine-3-carboxamide]: 1710 nM, 650 nM and 370 nM.
Taken in the same sequence, the figures for `CN(C(=O)C1CCS(=O)(=O)CC1)[C@@H](c1ccc(NC2Cc3ccccc3C2(C)C)nc1)C(F)(F)F` (single isomer, unassigned) [Example 36] were 1160 nM, 380 nM and 39 nM.
As to `CN(C(=O)OC1CNC1)[C@@H](c1ccc(NC2Cc3ccccc3C2(C)C)cc1)C(F)(F)F` (stereo partly drawn) [Example 60, Azetidin-3-yl ((1S)-1-(4-((1,1-dimethyl-2,3-dihydro-1H-inden-2-ylamino)phenyl)-2,2,2-trifluoroethyl)(methyl)carbamate Hydrochloride], the IC50 is 1100 nM in assay [1] (Homo sapiens, Jurkat, 48 h); 210 nM in assay [2]; 53 nM at FL hMALT1 enzyme.
Regarding `CN(C(=O)C1CCOCC1)[C@@H](c1ccc(NC2Cc3ccccc3C2(C)C)cc1)C(F)(F)F` (single isomer, unassigned) [Example 19], the IC50 in assay [1] (48 hours) amounted to 110 nM; in assay [2] it was 170 nM; on FL hMALT1 enzyme it was 30 nM.
The matching figures for `CC(=O)N1CC(C)(C(=O)N(C)[C@@H](c2ccc(NC3Cc4ccccc4C3(C)C)cc2)C(F)(F)F)C1` (single isomer, unassigned) [Example 42]: 1600 nM, 160 nM and 35 nM.
The matching figures for `CN(C(=O)CN1CC(=O)NC1=O)[C@@H](c1ccc(NC2Cc3ccccc3C2(C)C)cc1)C(F)(F)F` (single isomer, unassigned) [Example 66]: 590 nM, 220 nM and 20 nM.
`C[C@H](c1ccc(NC2Cc3ccccc3C2(C)C)cc1)N(C)C(=O)C1CCS(=O)(=O)CC1` (single isomer, unassigned) [Example 63]: the 50% inhibitory concentration (IC50) was determined as 2550 nM in assay [1] (Homo sapiens, Jurkat, 48 h); 390 nM in assay [2]; 200 nM on FL hMALT1 enzyme.
On to `CN1CC(C(=O)N(C)C(c2ccc(NC3Cc4ccccc4C3(C)C)nc2)C(F)(F)F)C1` (single isomer, unassigned) [Example 95, N-(1-(6-((1,1-Dimethyl-2,3-dihydro-1H-inden-2-yl)amino)pyridin-3-yl)-2,2,2-trifluoroethyl)-N,1-dimethylazetidine-3-carboxamide], for which the IC50 in assay [1] (48 hours) came to 1300 nM; in assay [2], 580 nM; against FL hMALT1 enzyme it was 640 nM.
The matching figures for `CN(C(=O)C1CCS(=O)(=O)CC1)[C@@H](c1ccc(NC2Cc3cc(Cl)ccc3C2(C)C)cc1)C(F)(F)F` (single isomer, unassigned) [Example 152]: 360 nM, 260 nM and 420 nM.
In the case of `CN(C(=O)C1CCS(=O)(=O)CC1)[C@@H](c1ccc(NC2Cc3ccc(Cl)cc3C2(C)C)cc1)C(F)(F)F` (single isomer, unassigned) [Example 150], the half-maximal inhibitory concentration (IC50) in assay [1] (Homo sapiens, Jurkat, 48 h) stood at 100 nM; in assay [2], 150 nM; against FL hMALT1 enzyme, 66 nM.
The matching figures for `CN(C(=O)CO)[C@@H](c1ccc(NC2Cc3ccccc3C2(C)C)cc1)C(F)(F)F` (single isomer, unassigned) [Example 31]: 1190 nM, 130 nM and 50 nM.
On to `CC(=O)NCC(=O)N(C)[C@@H](c1ccc(NC2Cc3ccccc3C2(C)C)cc1)C(F)(F)F` (single isomer, unassigned) [Example 39], for which the values for the IC50 (in assay [1] (48 hours); in assay [2]; on FL hMALT1 enzyme) were 3590 nM, 240 nM and 170 nM, respectively.
The matching figures for `CN(C(=O)C1CCS(=O)(=O)CC1)[C@@H](c1ccc(NC2Cc3cc(Cl)ccc3C2(C)C)cc1)C(F)(F)F` (single isomer, unassigned) [Example 153]: 120 nM, 190 nM and 67 nM.
On to `CN(C(=O)c1cocn1)[C@@H](c1ccc(NC2Cc3ccccc3C2(C)C)cc1)C(F)(F)F` (single isomer, unassigned) [Example 26], for which the IC50 in assay [1] (48 hours) worked out at 910 nM; in assay [2] it was 360 nM; at FL hMALT1 enzyme it was 700 nM.
`CN([C@@H](c1ccc(NC2Cc3ccccc3C2(C)C)cc1)C(F)(F)F)S(=O)(=O)C1CC1` (single isomer, unassigned) [Example 79]: the IC50 in assay [1] (Homo sapiens, Jurkat, 48 h) stood at 4310 nM; in assay [2], 610 nM; against FL hMALT1 enzyme it was 730 nM.
Consider `CN(C(=O)C1CCS(=O)(=O)CC1)[C@@H](c1ccc(NC2Cc3ccccc3C2(C)C)cn1)C(F)(F)F` (single isomer, unassigned) [Example 78], for which the values for the IC50 (in assay [1] (48 hours); in assay [2]; on FL hMALT1 enzyme) were 156 nM, 280 nM and 18 nM, respectively.
The matching figures for `CNS(=O)(=O)CCCC(=O)N(C)[C@@H](c1ccc(NC2Cc3ccccc3C2(C)C)cc1)C(F)(F)F` (single isomer, unassigned) [Example 65]: 2240 nM, 190 nM and 45 nM.
